In ChEMBL document CHEMBL5518225, “Mechanism-Based Macrocyclic Inhibitors of Serine Proteases” (J Med Chem, 2024):

Legend:
Homo sapiens [1] = species on record: Homo sapiens; test: Selectivity index, ratio of IC50 for inhibition of C-terminal 10-His tagged human recombinant HGFA (Gln36 to Ser655 residues) to IC50 for inhibition of N-terminal 6His-tagged human recombinant TMPRSS2 (106 to 492 residues)
[2] = molecular target: Transmembrane protease serine 2 (Homo sapiens, UniProt O15393); test: Inhibition of N-terminal 6His-tagged human recombinant TMPRSS2 (106 to 492 residues) using Boc-QAR-AMC as substrate preincubated for 30 mins followed by substrate addition and measured by fluorescence based analysis
[3] = molecular target: T1, Hepatocyte growth factor activator serine protease (Homo sapiens, UniProt Q04756); test: Inhibition of C-terminal 10-His tagged human recombinant HGFA (Gln36 to Ser655 residues) using Boc-QLR-AMC as substrate preincubated for 30 mins followed by substrate addition and measured by fluorescence based analysis
T1 sequence (Q04756 whole entry): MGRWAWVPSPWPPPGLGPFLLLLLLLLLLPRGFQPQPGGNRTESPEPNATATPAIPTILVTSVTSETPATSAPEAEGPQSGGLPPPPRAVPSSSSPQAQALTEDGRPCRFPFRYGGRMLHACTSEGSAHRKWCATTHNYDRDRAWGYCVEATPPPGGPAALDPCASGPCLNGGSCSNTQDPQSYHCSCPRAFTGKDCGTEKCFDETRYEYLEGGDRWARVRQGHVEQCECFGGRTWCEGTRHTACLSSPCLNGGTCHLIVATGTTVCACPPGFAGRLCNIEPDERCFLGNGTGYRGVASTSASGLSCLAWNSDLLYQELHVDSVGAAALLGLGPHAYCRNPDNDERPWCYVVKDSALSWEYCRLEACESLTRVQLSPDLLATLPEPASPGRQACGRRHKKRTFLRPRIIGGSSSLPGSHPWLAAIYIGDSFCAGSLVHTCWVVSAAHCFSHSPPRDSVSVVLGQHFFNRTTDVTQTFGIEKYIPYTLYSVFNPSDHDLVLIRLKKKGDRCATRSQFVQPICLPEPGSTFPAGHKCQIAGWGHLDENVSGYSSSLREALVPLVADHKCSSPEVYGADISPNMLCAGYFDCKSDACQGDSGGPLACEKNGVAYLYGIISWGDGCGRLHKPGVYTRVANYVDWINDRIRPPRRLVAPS

[4] = molecular target: T2, Suppressor of tumorigenicity 14 protein (Homo sapiens, UniProt Q9Y5Y6); test: Inhibition of N-terminal Met/6His tagged human recombinant matriptase catalytic domain (Gly596 to Val855 residues) using Boc-QAR-AMC as substrate preincubated for 30 mins followed by substrate addition and measured by fluorescence based analysis
T2 sequence (Q9Y5Y6 whole entry): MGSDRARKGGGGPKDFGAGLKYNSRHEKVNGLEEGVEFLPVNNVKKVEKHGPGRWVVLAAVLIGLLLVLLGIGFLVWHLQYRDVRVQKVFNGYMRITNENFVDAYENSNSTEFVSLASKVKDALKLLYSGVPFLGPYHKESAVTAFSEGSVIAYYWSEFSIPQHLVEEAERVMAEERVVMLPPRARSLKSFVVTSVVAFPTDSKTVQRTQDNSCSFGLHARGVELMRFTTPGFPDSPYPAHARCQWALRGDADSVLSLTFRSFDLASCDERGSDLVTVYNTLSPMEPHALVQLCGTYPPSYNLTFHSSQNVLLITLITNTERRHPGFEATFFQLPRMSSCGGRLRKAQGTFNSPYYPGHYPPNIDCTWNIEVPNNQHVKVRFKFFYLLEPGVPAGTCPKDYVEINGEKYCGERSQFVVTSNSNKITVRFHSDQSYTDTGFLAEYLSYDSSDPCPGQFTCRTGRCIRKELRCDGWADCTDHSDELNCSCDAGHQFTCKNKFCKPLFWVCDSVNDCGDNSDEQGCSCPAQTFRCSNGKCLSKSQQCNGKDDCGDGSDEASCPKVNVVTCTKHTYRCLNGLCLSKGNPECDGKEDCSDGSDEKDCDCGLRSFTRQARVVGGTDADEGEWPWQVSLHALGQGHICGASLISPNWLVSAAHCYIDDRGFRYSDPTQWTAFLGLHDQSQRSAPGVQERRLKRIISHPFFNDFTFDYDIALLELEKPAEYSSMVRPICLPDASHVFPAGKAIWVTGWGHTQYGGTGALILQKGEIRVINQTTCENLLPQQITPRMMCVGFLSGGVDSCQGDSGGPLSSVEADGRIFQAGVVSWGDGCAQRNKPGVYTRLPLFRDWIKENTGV

Serine protease hepsin = Serine protease hepsin (Homo sapiens, UniProt P05981); test: Inhibition of C-terminal 10-His tagged human recombinant hepsin (Arg45 to Leu417 residues) using Boc-QAR-AMC as substrate preincubated for 30 mins followed by substrate addition and measured by fluorescence based analysis
Homo sapiens [5] = species on record: Homo sapiens; test: Selectivity index, ratio of IC50 for inhibition of N-terminal Met/6His tagged human recombinant matriptase catalytic domain (Gly596 to Val855 residues) to IC50 for inhibition of N-terminal 6His-tagged human recombinant TMPRSS2 (106 to 492 residues)
Homo sapiens [6] = species on record: Homo sapiens; test: Selectivity index, ratio of IC50 for inhibition of C-terminal 10-His tagged human recombinant hepsin (Arg45 to Leu417 residues) to IC50 for inhibition of N-terminal 6His-tagged human recombinant TMPRSS2 (106 to 492 residues)
[7] = Metabolic stability in mouse plasma assessed as compound remaining measured at 2 hrs; assay type: ADME, cell-free; settings: read-out: Stability
[8] = Metabolic stability in human plasma assessed as compound remaining measured at 2 hrs; assay type: ADME, cell-free; settings: read-out: Stability
[9] = Metabolic stability in mouse plasma assessed as half life; assay type: ADME, cell-free
[10] = Metabolic stability in human plasma assessed as half life; assay type: ADME, cell-free
[11] = Metabolic stability in mouse plasma assessed as drug degradation measured after 2 hrs; assay type: ADME, cell-free
[12] = molecular target: Coagulation factor X, Homo sapiens (UniProt P00742); test: Inhibition of factor Xa (unknown origin) using Bz-lle-Glu-Gly-Arg-pNA as chromogenic substrate preincubated for 30 mins followed by substrate addition by absorbance based analysis
[13] = Half life in male CD-1 mouse at 13 to 20 mg/kg, ip administered as single dose and measured upto 24 hrs by LC-MS/MS analysis; assay type: ADME, organism-based; settings: in vivo, dose 13-20 mg/kg
[14] = Drug uptake in male CD-1 mouse at 13 to 20 mg/kg, ip administered as single dose and measured upto 24 hrs by LC-MS/MS analysis; assay type: ADME, organism-based; settings: in vivo, dose 13-20 mg/kg
[15] = Elimination half life in male CD-1 mouse at 13 to 20 mg/kg, ip administered as single dose and measured upto 24 hrs by LC-MS/MS analysis; assay type: ADME, organism-based; settings: in vivo, dose 13-20 mg/kg

| SMILES | IC50 [2] [µM] | IC50 [4] [µM] | IC50 (Serine protease hepsin) [µM] | remaining at 2 h [7] [%] | remaining at 2 h [8] [%] | t1/2 [9] [h] | t1/2 [10] [h] | IC50 [12] [µM] | also measured |
| --- | --- | --- | --- | --- | --- | --- | --- | --- | --- |
| CC(=O)N[C@H]1Cc2ccc(cc2)Oc2ccc(cc2)C[C@@H](C(=O)N[C@@H](CCCNC(=N)N)C(=O)c2nc3ccccc3s2)NC(=O)[C@H](CC(C)C)NC1=O | 0.0012 | 0.18 | 0.0075 |  |  |  |  |  | Ratio IC50 (Homo sapiens [1]): 200; IC50 [3]: 0.25 µM; Ratio IC50 (Homo sapiens [5]): 144; Ratio IC50 (Homo sapiens [6]): 6 |
| CC(=O)N[C@H]1Cc2cn(nn2)CCCC[C@H](C(=O)N[C@@H](CCCNC(=N)N)C(=O)c2nc3ccccc3s2)NC(=O)[C@H](CC(C)C)NC1=O |  |  |  | 83 | 85 | > 4.82 | > 4.82 |  |  |
| CC(=O)N[C@H]1Cc2ccc(cc2)OC/C=C\CNC(=O)C[C@@H](C(=O)N[C@@H](CCCNC(=N)N)C(=O)c2nc3ccccc3s2)NC(=O)[C@H](CC(C)C)NC1=O | 0.022 | 0.054 |  | 95 | 81 | > 4.82 | > 4.82 | > 20 | Stability [11]: Stable |
| CC(=O)N[C@H]1Cc2ccc(cc2)Oc2cccc(c2)C[C@@H](C(=O)N[C@@H](CCCNC(=N)N)C(=O)c2nc3ccccc3s2)NC(=O)[C@H](CC(C)C)NC1=O |  |  | 0.0002 |  |  |  |  | 13 | t1/2 [13]: 4.5 h; Drug uptake [14]: Active |
| CC(=O)N[C@H]1CCCCn2cc(nn2)C[C@H](C(=O)N[C@@H](CCCNC(=N)N)C(=O)c2nc3ccccc3s2)NC(=O)[C@H](CC(C)C)NC1=O |  |  |  | 82 | 83 | > 4.82 | > 4.82 |  |  |
| CC(=O)N[C@H]1Cc2ccc(cc2)OC/C=C\CNC(=O)CC[C@@H](C(=O)N[C@@H](CCCNC(=N)N)C(=O)c2nc3ccccc3s2)NC(=O)[C@H](CC(C)C)NC1=O |  |  |  | 66 | 76 | 3.93 | > 4.82 | > 20 |  |
| CC(=O)N[C@H]1Cc2ccc(cc2)OC/C=C/C[C@@H](C(=O)N[C@@H](CCCNC(=N)N)C(=O)c2nc3ccccc3s2)NC(=O)[C@H](CC(C)C)NC1=O | 0.0012 | 0.0034 |  | 86 | 77 | > 4.82 | > 4.82 | > 20 | IC50 [3]: 0.026 µM; beta t1/2 [15]: < 0.5 h |
| CC(=O)N[C@H]1Cc2ccc(cc2)OCCCC[C@@H](C(=O)N[C@@H](CCCNC(=N)N)C(=O)c2nc3ccccc3s2)NC(=O)[C@H](CC(C)C)NC1=O |  |  |  | 98 | 79 | > 4.82 | > 4.82 |  | Stability [11]: Stable |
| CC(=O)N[C@H]1Cc2cccc(c2)Oc2ccc(cc2)C[C@@H](C(=O)N[C@@H](CCCNC(=N)N)C(=O)c2nc3ccccc3s2)NC(=O)[C@H](CC(C)C)NC1=O | 0.015 |  |  |  |  |  |  |  |  |
| CC(=O)N[C@H]1C/C=C/COc2ccc(cc2)C[C@@H](C(=O)N[C@@H](CCCNC(=N)N)C(=O)c2nc3ccccc3s2)NC(=O)[C@H](CC(C)C)NC1=O | 0.014 | 0.014 | 0.02 | 84 | 78 | > 4.82 | 4.77 | > 20 | IC50 [3]: > 20 µM |
| CC(=O)N[C@H]1Cc2ccc(cc2)OCCCC[C@@H](C(=O)N[C@@H](CCCNC(=N)N)C(=O)c2nc3ccccc3s2)NC(=O)[C@@H](Cc2c[nH]c3ccccc23)NC1=O | 0.0037 |  |  | 100 | 53 |  | 1.95 |  | Stability [11]: Stable |
| CC(=O)N[C@H]1Cc2ccc(cc2)OCCCC[C@@H](C(=O)N[C@@H](CCCNC(=N)N)C(=O)c2nc3ccccc3s2)NC(=O)[C@H](Cc2c[nH]c3ccccc23)NC1=O |  |  | 0.0028 | 78 | 67 | > 4.82 | 3.82 |  |  |
| CC(=O)N[C@H]1Cc2ccc(cc2)OCCCC[C@@H](C(=O)N[C@@H](CCCNC(=N)N)C(=O)c2nc3ccccc3s2)NC(=O)[C@H](Cc2ccccc2)NC1=O | 0.016 |  |  | 80 | 65 | > 4.82 | 3.15 |  |  |
